The record followed here is BindingDB's records for patent US20230270751 (Reviral, 2023).

Molecules are shown by their SMILES.

This assay addresses T1, Nucleoprotein (Human respiratory syncytial virus A (strain A2), UniProt P03418).
T1 sequence (P03418 whole entry): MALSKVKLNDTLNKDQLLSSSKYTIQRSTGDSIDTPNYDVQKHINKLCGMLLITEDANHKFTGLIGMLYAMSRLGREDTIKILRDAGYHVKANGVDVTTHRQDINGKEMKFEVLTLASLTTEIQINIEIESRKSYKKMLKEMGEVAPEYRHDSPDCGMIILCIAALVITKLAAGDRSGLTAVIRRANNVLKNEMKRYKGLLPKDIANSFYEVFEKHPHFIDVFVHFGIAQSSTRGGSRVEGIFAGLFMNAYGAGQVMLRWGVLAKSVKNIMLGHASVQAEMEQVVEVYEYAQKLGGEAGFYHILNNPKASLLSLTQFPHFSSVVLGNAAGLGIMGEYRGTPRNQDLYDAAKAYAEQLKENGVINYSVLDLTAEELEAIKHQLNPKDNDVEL
As to the kind of experiment: Not found.
Text: Not found
Take `O=C(N[C@H]1N=C(c2ccccc2)c2cccc(F)c2NC1=O)c1c(-c2ccccc2F)nn2c1OCC(C1CC1)C2` (stereo not given in full) [US20230270751, Example 13]: the EC50 is 28 nM.

As to `CN(C(=O)OC(C)(C)C)C1COc2c(C(=O)N[C@H]3N=C(c4ccccc4)c4cccc(F)c4NC3=O)c(-c3ccccc3F)nn2C1` (stereo not given in full) [US20230270751, Example 107], a half-maximal response (EC50) required 93 nM.

As to `O=C(N[C@H]1N=C(c2ccccc2)c2cccc(F)c2NC1=O)c1c(-c2ccccc2F)nn2c1OCC(CN1CCOCC1)C2` (stereo not given in full) [US20230270751, Example 173], the midpoint of the response, the EC50, lay at 91 nM.

In the case of `O=C(N[C@H]1N=C(c2ccccc2)c2cccc(F)c2NC1=O)c1c(-c2ccccc2F)nn2c1OCC(CN1CCCC1)C2` (stereo not given in full) [US20230270751, Example 182], the EC50 was 78 nM.

For the molecule `O=C(N[C@H]1N=C(c2ccccc2)c2cccc(F)c2NC1=O)c1c(-c2c(F)cccc2F)nn2c1OCCC2` [US20230270751, Example 196], the EC50 was 25 nM.
